# Assay results reported in US6737383B1, “Herbicidal oxadiazolidines” (priority 1999, dated 2004).
# Tests used:
# [1] = tested on: Italian ryegrass; test: Test E Italian ryegrass; type: in vivo, Lolium multiflorum; conditions: Preemergence; for I. Ryegrass plant response rating (0 to 100 scale): Rate 250 g/ha
# [2] = tested on: blackgrass; test: Test E blackgrass; type: in vivo, Alopecurus myosuroides; conditions: Preemergence; for Blackgrass plant response rating (0 to 100 scale): Rate 250 g/ha
# [3] = tested on: winter wheat; test: Test E winter wheat; type: in vivo, Triticum aestivum; conditions: Preemergence; for Wheat (winter) plant response rating (0 to 100 scale): Rate 250 g/ha
# [4] = tested on: winter barley; test: Test E winter barley; type: in vivo, Hordeum vulgare; conditions: Preemergence; for Barley (winter) plant response rating (0 to 100 scale): Rate 250 g/ha
# [5] = tested on: bamyardgrass; test: Test B flood test barnyardgrass; type: in vivo, Echinochloa crus-galli
# Procedure, shortened: (§1)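 Read-out is a visual response score from 0 (no effect) to 10 (complete control), assigned by comparison with untreated controls. Treatment was applied at the 2-leaf stage, and plants stayed in the greenhouse for twelve to sixteen days before scoring.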
# [6] = tested on: green foxtail; test: Test E green foxtail; type: in vivo, Setaria viridis; conditions: Preemergence; for Green foxtail plant response rating (0 to 100 scale): Rate 250 g/ha
# [7] = tested on: crabgrass; test: Test B pre/postemergence crabgrass; type: in vivo, Digitaria sanguinalis; conditions: for Crabgrass plant response rating (0 to 10 scale): 0 is no effect
# Procedure, shortened: (§2)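 Herbicidal effect was estimated by eye on a ten-point control scale after plants spent twelve to sixteen days in a greenhouse following soil or foliar treatment. Foliar sprays targeted plants at one to four leaves; all doses were formulated in a non-phytotoxic solvent with surfactant.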
# [8] = tested on: winter wheat; test: Test E winter wheat; type: in vivo, Triticum aestivum; conditions: Postemergence; for Plant response rating, Wheat (winter): 0 to 100 scale
# Procedure, shortened: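 Greenhouse test: compounds in non-phytotoxic solvent with surfactant; for postemergence, sprayed on plants at 1- to 4-leaf stage grown in 60:40 sandy loam/potting mix. Injury rated visually against untreated controls after about 21 to 28 days.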
# [9] = tested on: wild oat; test: Test E wild oat; type: in vivo, Avena fatua; conditions: Preemergence; for Wild oat plant response rating (0 to 100 scale): Rate 250 g/ha
# [10] = tested on: purple nutsedge; test: Test B pre/postemergence purple nutsedge; type: in vivo, Cyperus rotundus; conditions: for Nutsedge plant response rating (0 to 10 scale): 0 is no effect
# Procedure, shortened: as §2
# [11] = tested on: duck salad; test: Test B flood test duck salad; type: in vivo, Heteranthera limosa
# Procedure, shortened: as §1
# [12] = Rate 62 g/ha, 0 to 100 scale, 0 no effect, 100 complete control
# [13] = Rate 125 g/ha, 0 to 100 scale (0 no effect, 100 complete control)
# [14] = Postemergence (flood test species), Rate 125 g/ha, scale of 0 to 10 where 0 is no effect and 10 is complete control
# [15] = Rate 62 g/ha, Postemergence section, flood test species, scale of 0 to 10 where 0 is no effect and 10 is complete control
# [16] = Rate 250 g/ha, Postemergence (flood test), scale 0 to 10, 0 is no effect, 10 is complete control
# [17] = Postemergence, Rate 125 g/ha, scale of 0 to 10 where 0 is no effect and 10 is complete control
# [18] = Preemergence, Rate 62 g/ha, scale 0 to 10 (0 no effect, 10 complete control)
# [19] = Preemergence, Rate 125 g/ha, 10 is complete control
# [20] = Preemergence, Rate 250 g/ha, scale 0 to 10, 0 is no effect, 10 is complete control
# [21] = Preemergence, Rate 500 g/ha, scale 0 to 10 (0 no effect, 10 complete control)
# [22] = Rate 62 g/ha, Postemergence, scale of 0 to 10 where 0 is no effect and 10 is complete control
# [23] = Rate 250 g/ha, Postemergence, scale 0 to 10, 0 is no effect, 10 is complete control
# [24] = Rate 500 g/ha, Postemergence, scale 0 to 10
# [25] = Rate 1000 g/ha, 0 to 100 scale where 0 is no effect and 100 is complete control
# [26] = Rate 62 g/ha, headed Pre-emergence (flood test species), scale 0 to 10 (0 no effect, 10 complete control)
# [27] = Rate 125 g/ha, Pre-emergence, flood test species, scale 0 to 10 where 0 is no effect and 10 is complete control
# [28] = Rate 250 g/ha, Pre-emergence, flood-test species, scale 0 to 10, 0 is no effect, 10 is complete control
# [29] = Rate 500 g/ha, headed Pre-emergence (flood test species), scale 0 to 10 (0 no effect, 10 complete control)
# [30] = Preemergence, Rate 62 g/ha, scale of 0 to 10 where 0 is no effect and 10 is complete control
# [31] = Preemergence, Rate 500 g/ha, scale of 0 to 10 where 0 is no effect and 10 is complete control
# [32] = Rate 125 g/ha, Postemergence, scale 0 to 10
smiles,measurement,setting,value
CC(C)N(C(=O)n1oc(=O)n(CCCl)c1=O)c1ccc(F)cc1 [Compound 148],"Plant response rating, I. Ryegrass",[1]; [12],20
same,"Plant response rating, I. Ryegrass",[1]; [13],20
same,I. Ryegrass plant response rating (0 to 100 scale),[1],30
same,"Plant response rating, Blackgrass",[2]; [12],20
same,"Plant response rating, Blackgrass",[2]; [13],50
same,Blackgrass plant response rating (0 to 100 scale),[2],50
same,"Plant response rating, Wheat (winter)",[3]; [12],0
same,"Plant response rating, Wheat (winter)",[3]; [13],0
same,Wheat (winter) plant response rating (0 to 100 scale),[3],0
same,"Plant response rating, Barley (winter)",[4]; [12],10
same,"Plant response rating, Barley (winter)",[4]; [13],10
same,Barley (winter) plant response rating (0 to 100 scale),[4],10
same,Barnyardgrass plant response rating,[5]; [14],0
same,Barnyardgrass plant response rating,[5]; [15],0
same,"Plant response rating, Barnyardgrass",[5]; [16],0
same,Barnyardgrass plant response rating,"[5]; Rate 500 g/ha, listed under Postemergence (flood test species), scale 0 to 10, 0 no effect, 10 complete control",4
same,"Plant response rating, Green foxtail",[6]; [12],20
same,"Plant response rating, Green foxtail",[6]; [13],30
same,Green foxtail plant response rating (0 to 100 scale),[6],55
same,Crabgrass plant response rating,[7]; [17],8
same,Crabgrass plant response rating,[7]; [18],5
same,Crabgrass plant response rating (0 to 10 scale),[7]; [19],8
same,Crabgrass plant response rating,[7]; [20],9
same,Crabgrass plant response rating,[7]; [21],9
same,Crabgrass plant response rating,[7]; [22],8
same,"Plant response rating, Crabgrass",[7]; [23],8
same,Crabgrass plant response rating,[7]; [24],9
same,"Plant response rating, Wheat (winter)",[8]; Rate 62 g/ha,0
same,"Plant response rating, Wheat (winter)",[8]; Rate 125 g/ha,10
same,Wheat (winter) plant response rating,"[8]; Rate 250 g/ha, 0 to 100 scale where 0 is no effect and 100 is complete control",80
same,"Plant response rating, Wild oat",[9]; [12],10
same,"Plant response rating, Wild oat",[9]; [13],15
same,Wild oat plant response rating (0 to 100 scale),[9],40
same,Nutsedge plant response rating,[10]; [17],0
same,Nutsedge plant response rating,[10]; [18],0
same,Nutsedge plant response rating (0 to 10 scale),[10]; [19],0
same,Nutsedge plant response rating,[10]; [20],0
same,Nutsedge plant response rating,[10]; [21],0
same,Nutsedge plant response rating,[10]; [22],0
same,"Plant response rating, Nutsedge",[10]; [23],0
same,Nutsedge plant response rating,[10]; [24],0
same,Ducksalad plant response rating,[11]; [14],0
same,Ducksalad plant response rating,[11]; [15],0
same,"Plant response rating, Ducksalad",[11]; [16],0
same,Ducksalad plant response rating,"[11]; Rate 500 g/ha, listed under Postemergence (flood test species), scale 0 to 10",0
Cc1ccccc1-n1c(=O)on(C(=O)N(c2ccccc2F)C(C)C)c1=O [Compound 204],I. Ryegrass plant response rating (0 to 100 scale),[1],50
same,"Plant response rating, I. Ryegrass",[1]; [25],65
same,Blackgrass plant response rating (0 to 100 scale),[2],55
same,"Plant response rating, Blackgrass",[2]; [25],95
same,Wheat (winter) plant response rating (0 to 100 scale),[3],30
same,"Plant response rating, Wheat (winter)",[3]; [25],50
same,Barley (winter) plant response rating (0 to 100 scale),[4],50
same,"Plant response rating, Barley (winter)",[4]; [25],30
same,Barnyardgrass plant response rating,[5]; [26],0
same,Barnyardgrass plant response rating,[5]; [27],0
same,Barnyardgrass plant response rating,[5]; [28],0
same,"Plant response rating, Barnyardgrass",[5]; [29],0
same,Green foxtail plant response rating (0 to 100 scale),[6],75
same,"Plant response rating, Green foxtail",[6]; [25],100
same,Crabgrass plant response rating,[7]; [30],6
same,Crabgrass plant response rating (0 to 10 scale),[7]; [19],8
same,Crabgrass plant response rating,[7]; [20],8
same,"Plant response rating, Crabgrass",[7]; [31],8
same,Crabgrass plant response rating,[7]; [22],0
same,Crabgrass plant response rating,[7]; [32],0
same,"Plant response rating (0 to 10; 0 is no effect, 10 is complete control), Crabgrass","[7]; Rate 250 g/ha, Postemergence",2
same,Crabgrass plant response rating,[7]; [24],5
same,"Plant response rating, Wheat (winter)","[8]; Rate 1000 g/ha, 0 is no effect and 100 is complete control",30
same,Wild oat plant response rating (0 to 100 scale),[9],50
same,"Plant response rating, Wild oat",[9]; [25],50
same,Nutsedge plant response rating,[10]; [30],0
same,Nutsedge plant response rating (0 to 10 scale),[10]; [19],0
same,Nutsedge plant response rating,[10]; [20],0
same,"Plant response rating, Nutsedge",[10]; [31],0
same,Nutsedge plant response rating,[10]; [22],0
same,Nutsedge plant response rating,[10]; [32],0
same,"Plant response rating (0 to 10; 0 is no effect, 10 is complete control), Nutsedge","[10]; Rate 250 g/ha, Postemergence",0
same,Nutsedge plant response rating,[10]; [24],0
same,Ducksalad plant response rating,[11]; [26],0
same,Ducksalad plant response rating,[11]; [27],0
same,Ducksalad plant response rating,[11]; [28],0
same,"Plant response rating, Ducksalad",[11]; [29],0
